What was measured:
[1] = cited from earlier work
[2] = In vitro RRT study of teicoplanin in bovine blood, evaluated with the IDP model; format: in vitro ADME
Procedure: For all population pharmacokinetic modelling work in this study, NONMEM® (ICON development service, Gaithersburg, MD, version 7.4) was used. The inter-individual variability of the pharmacokinetic parameters was assumed to be log-normally distributed. For the intra-individual, residual variability an additive, proportional or combined error model was used. In the clinical data examples, models were evaluated by graphical and numerical criteria (goodness of fit plots, visual predictive checks and drop in objective function value (dOFV)). The LLP-SIR (log-likelihood-profiling based sampling-importance-resampling) method was employed for the assessment of parameter uncertainty, since a small number of subjects or cases was investigated.
An in vitro study investigating RRT of teicoplanin in bovine blood was evaluated using the IDP model. 51 pre-filter plasma samples and 45 post-filter plasma samples were included. 45 effluent samples were collected which were all below the lower limit of quantification (5 mg/L), which was considered in the analyses by comparison to simulations after estimation. A blood concentration of 25 mg/L using a volume of 2.2–2.5 L was studied. The blood flow rate was set to 250 mL/min and the dialysate flow rate to 500 mL/min without filtration. In five experiments, a polysulphone membrane (n = 3: FX80, Fresenius Medical Company, Austria, n = 2: F60 S, Fresenius Medical Company, Austria), and in one experiment a triacetate membrane (Ni 21 e, Surflux-21E, Nipro Corporation, Japan) was used. The IDP model was used to describe the RRT clearance and adsorption to the dialysis membranes was evaluated.

[3] = patients with normal serum albumin concentrations; cited from earlier work
From the text: Protein binding plays an important role when the RRT clearance is only estimated based on drug characteristics, since it is assumed that only unbound drug can be dialyzed or filtrated. The integrated model allows direct assessment of the RRT clearance without assumptions on the efficacy in dialysis and filtration processes based on the unbound fraction. Moreover, elimination processes, that are independent of dialysis and filtration, e.g. adsorption to the dialysis membrane, can be quantified. RRT clearance of highly protein bound drugs, e.g. teicoplanin presenting a protein binding of >90% in ...

Compound | degradation half-life in stabilizing conditions [1] [h] | CLRRT ([2]; bovine blood, 25 mg/L, blood flow 250 mL/min, dialysate flow 500 mL/min, no filtration, IDP model) [mL/min] | FractionAdsorbed (fraction of the RRT clearance mediated via adsorption) ([2]; bovine blood, IDP model) | RRT clearance ([2]; bovine blood, IDP model, changing over time) [L/h] | Ads. capacity polysulfone FX80/F60S ([2]; polysulphone membranes, five experiments) [mg] | Adsorption capacity triacetate ([2]; triacetate membrane Ni 21 e, n = 1 experiment) [mg] | protein binding [3] [%]
C[C@@H](O)[C@H]1C(=O)N2C(C(=O)O)=C(S[C@@H]3CN[C@H](CNS(N)(=O)=O)C3)[C@H](C)[C@H]12 [Doripenem, doripenem] | > 100 |  |  |  |  |  | 
teicoplanin |  | 76.5 | 0.891 | 4.59 | 31.2 | 8.6 | > 90

— article PMC7225193, “An Integrated Dialysis Pharmacometric (IDP) Model to Evaluate the Pharmacokinetics in Patients Undergoing Renal Replacement Therapy” (Pharmaceutical Research, 2020)
